Measured values taken from article PMC4830892, “A microarray-based approach to evaluate the functional significance of protein-binding motifs” (Analytical and Bioanalytical Chemistry, 2016).
Like-named read-outs stand apart in the source and are kept apart here. Non-standard residues stand in square brackets, D forms with d. Residues, ends and D or L forms follow the SMILES beside them. pY = N[C@@H](Cc1ccc(OP(=O)(O)O)cc1)C(=O)O

How the values were obtained:
[1] = tested on: proteins in Jurkat cell lysate (total cellular proteome); test: Competition of α-pY antibody binding with Jurkat cell lysate on peptide microarrays; conditions: for Kd: from EC50 and Kd α-pY by Cheng-Prusoff equation (Eq. 4), ± standard deviation
Experimental: (§1) Peptides that correspond to known interaction motifs involved in the formation of protein complexes in T cell signalling were purchased from EMC microcollections (Tübingen, Germany). All peptides carried an extra cysteine residue and a free N-terminus for immobilisation on the microarray substrates and a C-terminal amidation (see Electronic Supplementary Material (ESM), Table S1).
(§2) For generation of microarrays, peptide stock solutions (3 mM) in DMF were diluted 30 times with phosphate buffer (100 mM, pH 8) supplemented with 0.006 % (v/v) Triton X-100. N-Hydroxysuccinimide-preactivated slides served as substrates for immobilisation (Nexterion Slide H, Schott Nexterion/Peq-Lab, Erlangen, Germany) using a Nano-Plotter NP2.0 (GeSIM, Großerkmannshof, Germany), which employs piezo-driven pipetting tips to dispense peptide solutions. Microarray slides comprised 16 subarrays of doublets of each peptide. For each peptide, a volume of 1.2 nl was dispensed at a centre-to-centre spacing of 500 μm. During printing, temperature was maintained at 15 °C and air humidity at 65 %.
(§3) Jurkat T cell leukaemia cells were maintained in RPMI 1640 medium (PAN-Biotech, Aisenbach, Germany) supplemented with 10 % foetal calf serum at 37 °C in 5 % CO2. For the preparation of lysates, cells were resuspended in lysis buffer (1 % Triton X-100, 50 mM n-octyl-D-glucopyranoside (Fluka, Taufkirchen, Germany), 20 mM Tris, 1 mM EDTA, 150 mM NaCl, 1 mM Na3VO4, pH 7.5, and complete protease inhibitor cocktail (Roche Applied Science, Mannheim, Germany)). Incubation on ice for 1 h was followed by centrifugation at 20,000×g at 4 °C for 15 min to remove cell debris. Transmembrane proteins were extracted from lipid rafts by using N-octyl-D-glucopyranoside. Protein concentrations were measured by Bradford Assay.
(§4) Sixteen incubation chambers with identical subarrays consisting of peptides derived from binding motifs of signalling proteins (see ESM Table S1) were generated by attaching a clip-on frame to the microarray substrate (ProPlate Multiarray System, Grace Biolabs, Molecular Probes, Eugene, OR, USA). The typical incubation volume for the subarrays was 50 μl. Microarrays were either incubated with an α-pY antibody (α-pTyr 100, 9411, Cell Signalling, Frankfurt am Main, Germany) at the indicated concentrations or co-incubated with cell lysate at the indicated concentrations for 3 h at 4 °C. Additionally, in another set of experiments, recombinant GRB2-SH2 was incubated on microarrays alone or co-incubated with cell lysate employing an α-penta HIS antibody (34600, Qiagen, Hilden, Germany) for the detection of His-tagged GRB2-SH2.
(§5) After incubation, microarrays were washed three times with washing buffer (PBS, 0.05 % (w/v) BSA, 0.05 % (w/v) Tween-20). For the detection of signals, microarrays were incubated with a secondary α-mouse antibody conjugated with Alexa633 (A-21050, Invitrogen) at a concentration of 1 μg/ml for 15 min at RT followed by a last washing step with washing buffer. Microarrays were dried with nitrogen and scanned using a ProScanArray (PerkinElmer Life Sciences, Waltham, Massachusetts), and the data were analysed using ArrayPro Analyzer software (Media Cybernetics, Silver Spring, USA) as described before. Final data represented the mean signal intensities corrected for the median of a ring-shaped local background surrounding the respective peptide spot. Titrations with α-pY antibody and GRB2-SH2 were performed to calculate dissociation constants (see below).
For determination of EC50 values for competition with cell lysate, curves were fitted according to2 y=y0+Ae^−x/t with y0 as the signal intensity of the α-pY antibody or the recombinant GRB2-SH2 domain without cell lysate, A the amplitude, x the protein concentration in lysate, and t the decay constant. […]

[2] = tested on: SH2 domain of GRB2 (GRB2-SH2); conditions: cited from earlier work; for binding to GRB2 / GRB2-SH2 (in words): Kd values of GRB2-SH2 described in recently published manuscript, ref [14]
From the text: In contrast, the data points for LATpY191 and SHP1pY564, and SigpY437, ZAPpY319 and CDζpY72/83 were above or below the linear correlation defined by the first four peptides. […] SigpY437, in contrast, is a poor binder for which already low concent ...

[3] = tested on: α-phosphotyrosine antibody (α-pTyr 100); test: Titration of α-pY antibody on peptide microarrays; format: binding; conditions: for affinity of the α-pY antibody (in words): compared with the other pY peptides; for Kd: peptide microarray, α-pY antibody 0.06 to 6.66 nM, 3 h at 4 °C, indirect immunofluorescence (Alexa633), bimolecular binding isotherm (Eq. 1), average ± standard deviation, six independent experiments
Experimental: as §1, §2, §4, §5
The resulting titration curves were fitted with Origin (OriginLab Corporation, v.6.1057, Northampton, USA) using a binding isotherm for a bimolecular interaction (Eq. 1):1 Fabs=Fmaxprot/Kd+prot Fabs represents the intensity of a microarray spot after background correction and [prot] the concentration of the titrated binder. Kd and Fmax were obtained from the fits.
To render this approach quantitative, first the affinities of the α-pY antibody towards the phosphotyrosine motifs of the microarrays were determined. […] The titration curves were fitted with a binding isotherm for a bimolecular interaction (Eq. 1, Fig. 2a, Table 1). In general, a coefficient of determination (R^2) of 0.8 was used as a cutoff in order to score a peptide as a binder. […] Regarding the poly-proline motif (PP) containing peptides present on the microarray, only on the peptide GAB2-509 in five experiments, a titration curve with an R^2 > 0.8 could be generated.

[4] = tested on: proteins in Jurkat cell lysate (total cellular proteome); test: Competition of recombinant GRB2-SH2 binding with cell lysate on peptide microarrays
Experimental: as §3
The PCR product of the SH2 domain of GRB2 (GRB2-SH2) was cloned into the pET160/GW/D-TOPO vector (Invitrogen, Breda, The Netherlands), which contains a region encoding for a His-tag. The plasmid was used to perform a transformation into One Shot TOP10 competent cells (Invitrogen). […] The concentration of expressed protein was determined by photometric measurements at OD280. The concentration of GRB2-SH2 was determined in Western blots by quantitatively analysing obtained bands of purified GRB2-SH2 in an Odyssey Infrared Imaging System (Li-Cor Biosciences, Bad Homburg, Germany) in comparison with a bovine serum albumin (BSA) standard. […]

Structure (SMILES) | Kd [1] [µM] | loss of signal of the α-pY antibody on competition with cell lysate ([1]; result in words, Jurkat lysate up to 180 μM total protein) | affinity for the SH2 domain of GRB2 (in words) ([2]; ref [25], [26]) | affinity of the α-pY antibody (in words) [3] | Kd [3] [µM] | competition of GRB2-SH2 by cell lysate (in words) [4] | affinity for the SH2 domain of GRB2 (in words) ([2]; same as stated for LATpY191 (strong affinity for SH2 domain of GRB2), ref [27]) | binding to GRB2 / GRB2-SH2 (in words) [2]
CC(C)C[C@H](NC(=O)[C@H](CCC(=O)O)NC(=O)[C@H](CCC(N)=O)NC(=O)[C@H](CO)NC(=O)[C@@H](NC(=O)[C@H](CC(N)=O)NC(=O)[C@@H](NC(=O)[C@H](Cc1ccc(OP(=O)(O)O)cc1)NC(=O)[C@H](CCC(=O)O)NC(=O)[C@H](CCCNC(=N)N)NC(=O)[C@H](CO)NC(=O)CNC(=O)[C@H](CC(=O)O)NC(=O)[C@H](CC(C)C)NC(=O)[C@H](CO)NC(=O)[C@H](C)NC(=O)[C@H](CCC(=O)O)NC(=O)[C@@H](N)CS)C(C)C)C(C)C)C(N)=O [LATpY191] (H-CEASLDGSRE[pY]VNVSQEL-NH2) | 16 ± 15 | total loss of signal | strong affinity | high affinity | 0.00035 ± 0.00028 | rather small competition | – | –
CC(C)C[C@H](NC(=O)[C@H](CC(N)=O)NC(=O)[C@H](CCC(=O)O)NC(=O)[C@H](Cc1ccc(OP(=O)(O)O)cc1)NC(=O)[C@@H](NC(=O)[C@H](CC(=O)O)NC(=O)[C@H](CCC(=O)O)NC(=O)[C@H](CCCCN)NC(=O)[C@H](Cc1c[nH]cn1)NC(=O)[C@H](CCCCN)NC(=O)[C@H](CO)NC(=O)[C@@H](N)CS)C(C)C)C(=O)N[C@@H](Cc1c[nH]cn1)C(=O)N[C@H](C(=O)N[C@@H](CCCCN)C(=O)N[C@@H](CC(N)=O)C(=O)N[C@@H](CCCCN)C(N)=O)[C@@H](C)O [SHP1pY564] (H-CSKHKEDV[pY]ENLHTKNK-NH2) | 17 ± 10 | – | – | relatively low affinity | 0.00089 ± 0.00057 | – | The same holds true | –
CC[C@H](C)[C@H](NC(=O)[C@H](CCC(=O)O)NC(=O)[C@H](CCCNC(=N)N)NC(=O)[C@H](CCC(=O)O)NC(=O)[C@H](CCC(=O)O)NC(=O)CNC(=O)[C@@H](N)CS)C(=O)N[C@@H](CCC(N)=O)C(=O)N[C@@H](Cc1ccc(OP(=O)(O)O)cc1)C(=O)N[C@@H](C)C(=O)N1CCC[C@H]1C(=O)N[C@@H](CC(C)C)C(=O)N[C@@H](CO)C(=O)N[C@@H](Cc1ccccc1)C(=O)N[C@@H](Cc1c[nH]cn1)C(=O)N[C@@H](CCCCN)C(=O)NCC(N)=O [SigpY437] (H-CGEEREIQ[pY]APLSFHKG-NH2) | 22 ± 20 | – | – | – | 0.00066 ± 0.00046 | already low concentrations of lysate show full competition | – | poor binder
CC[C@H](C)[C@H](NC(=O)[C@H](CCCNC(=N)N)NC(=O)[C@H](C)NC(=O)[C@@H]1CCCN1C(=O)[C@H](CCC(=O)O)NC(=O)[C@@H]1CCCN1C(=O)[C@@H](NC(=O)[C@H](Cc1ccc(OP(=O)(O)O)cc1)NC(=O)CNC(=O)[C@H](CC(=O)O)NC(=O)[C@H](CO)NC(=O)[C@H](CC(N)=O)NC(=O)[C@H](CC(C)C)NC(=O)[C@@H](NC(=O)[C@H](CC(=O)O)NC(=O)[C@@H](NC(=O)[C@@H](N)CS)[C@@H](C)CC)[C@@H](C)O)[C@@H](C)O)C(=O)N[C@H](C(N)=O)[C@@H](C)O [ZAPpY296] (H-CIDTLNSDG[pY]TPEPARIT-NH2) | 27 ± 28 | – | – | relatively low affinity | 0.00132 ± 0.00059 | – | – | good binder
